Read-outs that look alike come from different tables or passages of the source.
Biological target: T1, GluN1/GluN2B NMDA receptors (UniProt P35439+Q01097)
T1 construct: expressed in transfected cells; host or cells: Xenopus laevis oocytes (nuclear cDNA injection)
Assay: TEVC electrophysiology on Xenopus oocytes expressing wt GluN1/GluN2B NMDARs
Assay type: cell-based, rat GluN1, mouse GluN2B
Conditions: for remaining activity at 2 µM / remaining activity at 7.5 µM / remaining activity at 10 µM / remaining activity at 25 µM / remaining activity at 70 µM / remaining activity at 1 µM / remaining activity at 5 µM / remaining activity at 50 µM / remaining activity at 90 µM / remaining activity at 100 µM: GluN1/GluN2B wt, read-out: Relative current (IOpto/I0); for UV/dark IC50 ratio (365 nm PSS vs dark): preilluminated in solution; for shift in IC50 compared to parent compound: trans configuration (dark)
Description: The activity of OptoNAM-3 was functionally monitored by electrophysiology on Xenopus oocytes (see Methods). To assess the light-dependent effect, we tested the activities of the dark PSS (mostly trans) and the UV PSS (mostly cis, see above) separately. For each concentration, we prepared a solution divided into two samples: one in which the compound was kept in the dark for the duration of the experiment (dark PSS state); and the other that was preilluminated with either 350 or 365 nm light (350 or 365 nm PSS) and then kept away from the light for the duration of the experiment in order to avoid photoisomerization of the compounds by ambient light (see Methods). […] We generated dose–response curves of OptoNAM-3 dark and UV PSS on wild-type (wt) GluN1/GluN2B NMDA receptors (Figure 3A) in the presence of saturating concentrations of agonists (100 μM glutamate and glycine).
We used cDNA coding for rat GluN1–1a (named GluN1 herein) (GenBank: U08261.1), rat GluN2A (GenBank: D13211.1), mouse GluN2B (GenBank: D10651.2), rat GluA1 flop (GenBank: M36418.2), and rat Myc-GluA2(Q)-flip (GenBank: AF164344.1) cloned into pcDNA3-based expression plasmids. GluK2 (GenBank: Z11548.1) corresponds to the fully RNA-edited version.[80] The GluN2B-ΔNTD construct is from ref[45] and GluN2B–N615K is from ref[81]. Single mutants GluN2B-Q110G and GluN1-L135H were from ref[19]. The GluA2 cDNA contains a Myc tag ([…]) fused between the signal peptide and the N-terminus sequences, and the GluA2 subunit is […] for its Q/R/N site (GluA2(Q)) to allow permeation of homomeric GluA2 receptors.[2] cDNAs coding for rat GluN2C (GenBank: M91563.1) and GluN2D subunits (GenBank: L31611.1) were in prK5 plasmids.
Oocytes from Xenopus laevis were used for heterologous expression of recombinant NMDA receptors studied using a two-electrode voltage clamp (TEVC). Female Xenopus laevis were housed and ovary bags harvested according to the European Union guidelines (husbandry authorizations #C75–05–31 and #D75–05–31; project authorizations #05137.02; and Apafis #28867–2020121814485893). Fragments of ovary bags were also purchased from the “Centre de Ressources Biologiques Xenopes” (now TEFOR, Paris Saclay, France) and from the European Xenopus Resource Center (EXRC, Portsmouth, UK). Xenopus laevis oocytes were harvested and prepared as previously described in ref[82].
Expression of recombinant NMDA receptors was obtained by oocyte nuclear coinjection of 37 nL of a mixture of cDNAs (at 30 ng/μL) coding for GluN1–1a and various GluN2 subunits (ratio 1:1). The protocol in ref[43] was followed for the expression of GluN1/GluN2A/GluN2B triheteromers. The oocytes were transferred in 96-well plates filled with Barth solution (in mM: 88 NaCl, 1 KCl, 0.33 Ca(NO3)2, 0.41 CaCl2, 0.82 MgSO4, 2.4 NaHCO3, and 7.5 HEPES, pH adjusted to 7.3 with NaOH), supplemented with gentamicin ([…]) and 50 μM APV, a selective NMDA receptor antagonist. Plates were then stored at 18 °C for 24 h for GluN1/GluN2A expression and for 48––72 h for the expression of GluN1/Glu2B, GluN1/GluN2A/GluN2B, and mutants.
TEVC recordings were performed 1–3 days following injection. TEVC recordings were performed using an Oocyte Clamp amplifier OC-725 (Warner Instruments) and computer-controlled via a 1440A Digidata (Molecular Devices). Currents were sampled at 100 Hz and low-pass-filtered at 20 Hz using an 8-pole Bessel filter (900 Series, Frequency Devices Inc.).

[1] = 365 nm PSS, 100 µM glutamate + glycine, Xenopus oocytes, read-out: IC50 on GluN1/GluN2B receptors, preilluminated with 365 nm
[2] = Sup. Fig. 2G, trans isomer, source: this paper, read-out: activity (Ki or IC50)

T1 sequence (Q01097 27-1482, other chains not shown): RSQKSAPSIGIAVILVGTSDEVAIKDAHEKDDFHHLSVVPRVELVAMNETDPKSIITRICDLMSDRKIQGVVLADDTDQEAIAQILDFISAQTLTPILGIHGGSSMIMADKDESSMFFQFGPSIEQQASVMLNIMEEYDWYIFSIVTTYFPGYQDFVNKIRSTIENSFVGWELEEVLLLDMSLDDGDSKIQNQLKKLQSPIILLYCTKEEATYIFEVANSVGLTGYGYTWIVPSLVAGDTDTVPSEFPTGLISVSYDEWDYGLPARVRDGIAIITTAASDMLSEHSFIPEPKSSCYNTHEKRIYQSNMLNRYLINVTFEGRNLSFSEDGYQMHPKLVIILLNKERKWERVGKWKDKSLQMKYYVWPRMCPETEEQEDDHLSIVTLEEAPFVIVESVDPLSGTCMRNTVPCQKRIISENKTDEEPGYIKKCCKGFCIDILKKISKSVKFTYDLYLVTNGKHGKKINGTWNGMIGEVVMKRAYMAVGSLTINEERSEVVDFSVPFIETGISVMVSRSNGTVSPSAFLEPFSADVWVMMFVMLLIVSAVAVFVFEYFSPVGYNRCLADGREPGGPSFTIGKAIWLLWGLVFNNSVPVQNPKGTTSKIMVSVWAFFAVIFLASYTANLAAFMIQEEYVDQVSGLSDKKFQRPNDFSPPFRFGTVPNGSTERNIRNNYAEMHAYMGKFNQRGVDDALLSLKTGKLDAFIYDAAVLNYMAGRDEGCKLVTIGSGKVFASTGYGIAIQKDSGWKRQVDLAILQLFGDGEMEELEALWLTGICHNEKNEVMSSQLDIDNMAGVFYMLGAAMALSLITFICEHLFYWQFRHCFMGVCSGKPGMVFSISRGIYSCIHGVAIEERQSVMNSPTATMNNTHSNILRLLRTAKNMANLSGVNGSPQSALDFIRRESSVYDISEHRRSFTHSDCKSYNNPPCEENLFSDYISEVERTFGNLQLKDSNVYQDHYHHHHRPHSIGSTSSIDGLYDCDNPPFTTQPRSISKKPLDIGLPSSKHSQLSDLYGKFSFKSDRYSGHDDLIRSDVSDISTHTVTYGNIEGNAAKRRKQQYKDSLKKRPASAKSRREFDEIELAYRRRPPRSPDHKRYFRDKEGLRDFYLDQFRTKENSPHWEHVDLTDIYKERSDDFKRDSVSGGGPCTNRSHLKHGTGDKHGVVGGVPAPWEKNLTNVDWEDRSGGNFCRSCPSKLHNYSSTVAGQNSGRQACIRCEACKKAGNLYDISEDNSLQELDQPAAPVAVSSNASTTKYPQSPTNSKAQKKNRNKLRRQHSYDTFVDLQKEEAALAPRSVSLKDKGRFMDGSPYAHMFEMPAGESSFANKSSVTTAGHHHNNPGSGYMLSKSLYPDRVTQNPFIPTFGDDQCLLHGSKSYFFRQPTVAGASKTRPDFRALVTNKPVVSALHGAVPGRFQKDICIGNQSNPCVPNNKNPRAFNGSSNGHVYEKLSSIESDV

**Q.** Which IC50 [1] does the source give for `Nc1ccnc(/N=N/c2ccccc2)c1` [OptoNAM-1, (E)-2-(phenyldiazenyl)pyridin-4-amine] here?
**A.** Its IC50 is 37 ± 2 µM.

**Q.** What about the remaining activity at 2 µM (365 nm PSS) of the same molecule?
**A.** The remaining activity at 2 µM was 91.1%.

**Q.** What about the remaining activity at 7.5 µM (365 nm PSS) of the same molecule?
**A.** Its remaining activity at 7.5 µM is 81.8%.

**Q.** What about the remaining activity at 10 µM (365 nm PSS) of the same molecule?
**A.** Its remaining activity at 10 µM is 78%.

**Q.** And the remaining activity at 25 µM (365 nm PSS)?
**A.** Its remaining activity at 25 µM is 58.1%.

**Q.** And the remaining activity at 70 µM (365 nm PSS)?
**A.** Its remaining activity at 70 µM is 35%.

**Q.** And the remaining activity at 2 µM (dark PSS (trans))?
**A.** The remaining activity at 2 µM was 83.8%.

**Q.** What about the remaining activity at 7.5 µM (dark PSS (trans)) of the same molecule?
**A.** Its remaining activity at 7.5 µM is 66.1%.

**Q.** And the remaining activity at 10 µM (dark PSS (trans))?
**A.** Its remaining activity at 10 µM is 49.9%.

**Q.** And the remaining activity at 25 µM (dark PSS (trans))?
**A.** Its remaining activity at 25 µM is 28.4%.

**Q.** What about the remaining activity at 70 µM (dark PSS (trans)) of the same molecule?
**A.** Its remaining activity at 70 µM is 13.4%.

**Q.** And the IC50 [2]?
**A.** The IC50 was 11 µM.

**Q.** And the “UV/dark IC50 ratio (365 nm PSS vs dark)” value (Xenopus oocytes)?
**A.** The value was 3.4 fold.

**Q.** And the “shift in IC50 compared to parent compound” value?
**A.** Its value is greater than 1000 fold.

**Q.** With `Cc1cc(N)nc(/N=N/c2ccccc2)c1` [OptoNAM-2, (E)-4-methyl-6-(phenyldiazenyl)pyridin-2-amine] as the molecule, how does the IC50 [1] read?
**A.** Its IC50 is 117 ± 10 µM.

**Q.** And the remaining activity at 1 µM (365 nm PSS)?
**A.** Its remaining activity at 1 µM is 94.5%.

**Q.** What about the remaining activity at 5 µM (365 nm PSS) of the same molecule?
**A.** Its remaining activity at 5 µM is 92.7%.

**Q.** What about the remaining activity at 10 µM (365 nm PSS) of the same molecule?
**A.** The remaining activity at 10 µM was 90%.

**Q.** And the remaining activity at 25 µM (365 nm PSS)?
**A.** The remaining activity at 25 µM was 84.2%.

**Q.** And the remaining activity at 50 µM (365 nm PSS)?
**A.** Its remaining activity at 50 µM is 63.5%.

**Q.** What about the remaining activity at 90 µM (365 nm PSS) of the same molecule?
**A.** The remaining activity at 90 µM was 50%.

**Q.** And the remaining activity at 100 µM (365 nm PSS)?
**A.** Its remaining activity at 100 µM is 49.3%.

**Q.** What about the remaining activity at 1 µM (dark PSS (trans)) of the same molecule?
**A.** The remaining activity at 1 µM was 92.5%.

**Q.** And the remaining activity at 5 µM (dark PSS (trans))?
**A.** Its remaining activity at 5 µM is 84.8%.

**Q.** What about the remaining activity at 10 µM (dark PSS (trans)) of the same molecule?
**A.** The remaining activity at 10 µM was 75.5%.

**Q.** What about the remaining activity at 25 µM (dark PSS (trans)) of the same molecule?
**A.** The remaining activity at 25 µM was 47.3%.

**Q.** What about the remaining activity at 50 µM (dark PSS (trans)) of the same molecule?
**A.** Its remaining activity at 50 µM is 31.1%.

**Q.** What about the remaining activity at 90 µM (dark PSS (trans)) of the same molecule?
**A.** The remaining activity at 90 µM was 22.1%.

**Q.** What about the remaining activity at 100 µM (dark PSS (trans)) of the same molecule?
**A.** The remaining activity at 100 µM was 14.4%.

**Q.** What about the IC50 [2] of the same molecule?
**A.** Its IC50 is 24 µM.

**Q.** What about the “UV/dark IC50 ratio (365 nm PSS vs dark)” value (Xenopus oocytes) of the same molecule?
**A.** The value was 4.9 fold.

**Q.** And the “shift in IC50 compared to parent compound” value?
**A.** The value was greater than 1000 fold.
